Data reported in US20020119958A1, “Therapeutic agent for hyperlipidemia” (priority 2001, published 2002).

Columns and labels:
[1] = biological target: T1, FXR ligand binding domain (FXR-LBD) (Homo sapiens, UniProt Q96RI1); assay: FRET assay of CDCA-induced binding of FXR-LBD to coactivator SRC-1; assay type: biochemical; conditions: in the presence of CDCA; compound A 1-50 μM; 4° C., 12 h
T1 construct: GST
T1 sequence (Q96RI1 262-486 limits assumed): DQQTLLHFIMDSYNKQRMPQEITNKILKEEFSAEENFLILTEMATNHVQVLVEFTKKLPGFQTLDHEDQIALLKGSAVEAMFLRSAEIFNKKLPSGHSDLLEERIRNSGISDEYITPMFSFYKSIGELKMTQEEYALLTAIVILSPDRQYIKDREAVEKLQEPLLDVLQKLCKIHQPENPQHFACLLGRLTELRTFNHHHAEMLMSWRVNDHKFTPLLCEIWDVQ
Procedure: (§1) An Eu-labeled FXR ligand binding domain (FXR-LBD) and an APC-labeled coactivator SRC-1 were mixed to the final concentration of 10 nM and 100 nM, respectively, in a buffer [100 mM Hepes (pH 7.6), 0.125% CHAPS, 125 mM NaF] in the presence of ligand CDCA. Thereto were added various concentrations of compound A (1-50 μM), and the mixture was allowed to react at 4° C. for 12 h. After the reaction, it was exposed to an excitation light at 337 nm and the fluorescence at 665 nm and 620 nm was measured, based on which the fluorescence ratio of 665 nm/620 nm was taken as an FRET fluorescence intensity.

[2] = system: LXR (liver X receptor) ligand binding domain (LXR-LBD); assay: FRET assay with LXR-LBD instead of FXR-LBD (test for comparison); assay type: biochemical; conditions: up to 50 μM
Procedure: as §1
At a concentration of not less than 1 μM, compound A inhibited the binding between FXR-LBD and SRC-1 induced in the presence of CDCA (attenuation of FRET fluorescent intensity). For a test for comparison, a similar experiment was conducted using LXR (liver X receptor) ligand binding domain (LXR-LBD) instead of FXR-LBD.

[3] = biological target: T2, FXR (Homo sapiens, UniProt Q96RI1); assay: CDCA-induced luciferase reporter gene transcription via FXR; assay type: cell-based; conditions: 293 or CV-1 cells treated with CDCA; compound A 0.1-10 μM
T2 construct: expressed in transfected cells; host or cells: 293 or CV-1
T2 sequence (Q96RI1 1-486): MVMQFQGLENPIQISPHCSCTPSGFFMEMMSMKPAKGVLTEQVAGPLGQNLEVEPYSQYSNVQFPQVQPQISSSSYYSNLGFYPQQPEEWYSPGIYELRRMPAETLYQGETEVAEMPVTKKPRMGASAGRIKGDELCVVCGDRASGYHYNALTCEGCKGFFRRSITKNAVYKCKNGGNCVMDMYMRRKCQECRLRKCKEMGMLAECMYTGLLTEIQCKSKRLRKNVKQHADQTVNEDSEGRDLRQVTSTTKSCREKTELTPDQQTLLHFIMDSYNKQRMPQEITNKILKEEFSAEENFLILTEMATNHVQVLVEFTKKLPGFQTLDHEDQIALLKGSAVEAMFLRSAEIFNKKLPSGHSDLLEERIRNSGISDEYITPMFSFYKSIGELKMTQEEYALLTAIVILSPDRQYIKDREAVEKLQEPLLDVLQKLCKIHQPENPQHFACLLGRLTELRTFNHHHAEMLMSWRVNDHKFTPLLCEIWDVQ
Procedure: (§2) A plasmid for compulsory expression of FXR, a luciferase reporter plasmid and a β-galactosidase expression plasmid for correction of gene transfer were introduced into cultured mammalian cells (293 or CV-1) by conventional methods. The cells after gene transfer were treated with CDCA and compound A. Cell lysates were prepared from the cells that underwent treatment with various concentrations of compound A (0.1-10 μM), and a luciferase activity (corrected based on β-galactosidase activity) in the cell lysate was expressed as an FXR dependent transcriptional activity. In the absence of a drug, the luciferase activity value upon activation with CDCA was taken as 100% and the value in the absence of a ligand was taken as 0%. For a test for comparison, a similar experiment was conducted using an LXR expression plasmid instead of the FXR expression plasmid.

[4] = system: LXR; assay: Luciferase reporter gene transcription via LXR (test for comparison); assay type: cell-based; conditions: up to the concentration of 10 μM
Procedure: as §2

[5] = system: CYP7A gene expression in HepG2 cells; assay: CYP7A mRNA in HepG2 cells by quantitative RT-PCR; assay type: cell-based, human; conditions: CDCA 20 μM + compound A 10 μM, 37° C., 16 h
Procedure: (§3) The cultured HepG2 cells were treated under the following three conditions at 37° C. for 16 h.
(§4) 1) no treatment with CDCA, no treatment with compound A
(§5) 2) treatment with CDCA (20 μM), no treatment with compound A
3) treatment with CDCA (20 μM), treatment with compound A (10 μM)
RNA was prepared from the cells after the treatment and the amount of CYP7A mRNA contained in the RNA was measured by quantitative RT-PCR. For the quantitative RT-PCR, TaqMan One Step Gold reverse transcriptase PCR kit of Applied Biosystems/PerkinElmer was used. For quantification, the following primers (i)-(iii) derived from human CYP7A gene sequence were used.

[6] = system: CYP7A protein in HepG2 cells; assay: CYP7A protein in HepG2 cells by Western blot; assay type: cell-based, human; conditions: CDCA 20 μM, compound A 0.03-10 μM, 16 h
Procedure: as §3, §4, §5
3) treatment with CDCA (20 μM), treatment with compound A (0.03, 0.1, 0.3, 1, 3, 10 μM)
After the treatment, the cells were recovered and lysed in a lysis buffer (125 mM Tris HCl (pH 8.0), 2 mM CaCl2, 2% Triton X-100) to prepare a cell lysate. The cell lysate was fractionated by SDS-PAGE, and the protein was transferred onto a PVDF membrane. The CYP7A protein was detected by Western blot analysis using an anti CYP7A antibody and an HRP (horse-radish peroxidase) conjugated 2nd antibody.

[7] = system: I-BABP gene expression in Caco-2 cells; assay: I-BABP mRNA in Caco-2 cells by Northern blot; assay type: cell-based, human; conditions: 100 μM CDCA, compound A at 10 μM
Procedure: The human colon carcinoma derived cell line, Caco-2, is a cell line differentiated like the small intestine and expresses the I-BABP gene. The I-BABP gene expression in Caco-2 cells is promoted by CDCA and an expression control system of I-BABP gene by FXR is considered to be also present in Caco-2 cells (Makishima, M. et al. Science 284, 1362-5 (1999)). Thus, an action on the I-BABP gene expression of compound A as an FXR antagonist was tested using Caco-2 cells.
The Caco-2 cells were cultured in the presence of 100 μM CDCA, and the expression of I-BABP gene was induced. Thereto was added compound A and changes in the I-BABP gene expression level were examined by measuring the amount of I-BABP mRNA by Northern blot analysis.

[8] = system: HepG2 cells; assay: Excretion of bile acid from HepG2 cells; assay type: cell-based, human; conditions: compound A 1, 10 μM, 24 h
Procedure: The cultured HepG2 cells were plated in a 24-well culture dish at 1.5×10^5 cells/ml, 0.5 ml/well. Four days later, the medium was exchanged to a new one and ^14C-labeled cholesterol (18.5 kBq/well) was added, which was cultured for 24 h (bile acid in the cells was labeled thereby). After the culture, the medium was exchanged to a new one and compound A (final concentration 1, 10 μM) was added. After 24 hours of culture, the medium was recovered and the amount of bile acid excreted into the medium was measured to examine the influence of compound A on bile acid excretion. The amount of excreted bile acid was corrected based on the protein amount of the cell.

[9] = Concentration in blood after single oral administration to hamster; assay type: in vivo; conditions: male, GS, single oral 100 mg/kg, serum
Procedure: The compound A was forcibly given to hamster by single oral administration and measured for shifts in the concentration in blood. The test conditions were as follows. animal: male GS hamster (purchased from Japan SLC), 9 weeks old administration liquid: 20 mg/ml 0.5% methylcellulose suspension diet: not fasted dose: 100 mg/5 ml/kg (p.o.) administration: forcible single oral administration using oral sound blood sampling time: 5, 15, 30, 60, 180, 360 min after administration serum preparation: blood was drawn from the orbital vein and centrifuged using a Separapid tube (coagulation promoting spitz tube containing serum separating agent) to give serum.
An internal standard substance (CV-5386, 0.1 μg) was added to serum (0.1 ml) and admixed. Methanol (0.3 ml) was added and the mixture was stirred. The mixture was centrifuged at 10,000 rpm (FORCE-7 Denver Instrument Company) for 2 min and the resulting supernatant was subjected to centrifugal filtration using Centricut. The obtained filtrate was analyzed by LC-ESI-MS/MS.

[10] = Serum total cholesterol in hamsters on high fat diet; assay type: in vivo, hamster; conditions: 14 days, last day of the test
Procedure: (§6) Male Syrian Golden Hamsters (7 weeks old) were purchased from Japan SLC and preliminarily reared for 2 weeks under a high fat diet load (10% coconut oil, 0.12% cholesterol). After the preliminary rearing, the high fat diet was fed to the hamsters while administering compound A. The drug was prepared into a 0.5% methylcellulose suspension, and forcibly administered orally at 30 or 100 mg/kg/day for 14 consecutive days. At 4, 7, 11 and 14 days from the drug administration, blood was drawn from the orbital vein of the animal and total serum cholesterol value was measured. As a control, a drug non-administration group was prepared and treated similarly, which was followed by measurement of the serum total cholesterol value. At the final day of the test, the liver and the ileum were removed from the animals, from which the total RNA was prepared.
The blood was drawn from the orbital vein of the animals and centrifuged (3000 rpm, 15 min) to prepare the serum. The total cholesterol concentration of the serum was determined by the enzyme method.

[11] = system: CYP7A gene; assay: Northern blot of CYP7A gene expression in hamster liver; assay type: in vivo; conditions: 14 days
Procedure: as §6
(§7) The total RNA was prepared from animal tissues by AGPC method. The prepared total RNA was electrophoresed on an agarose gel containing 6% formaldehyde and transferred onto a nylon membrane by a capillary blotting method. This membrane was hybridized with ^32P-labeled hamster CYP7A or I-BABP probe in 50% formamide at 42° C. for 16 h and the amounts of CYP7A and I-BABP gene expressions were measured. The CYP7A and I-BABP probes were prepared by RT-PCR method from RNA derived from the liver and the ileum, respectively, of the hamsters.

[12] = system: I-BABP gene; assay: Northern blot of I-BABP gene expression in hamster ileum; assay type: in vivo; conditions: 14 days
Procedure: as §6, §7

CC(C)(C)c1cc(C(C)(C)C)c(O)c(NC(=O)c2ccccc2)c1O [compound A, N-(3,5-di-tert-butyl-2,6-dihydroxyphenyl)benzamide]
concentration at which the binding between FXR-LBD and SRC-1 was inhibited (attenuation of FRET fluorescent intensity) [1]: not less than 1 μM | effect on FRET fluorescent intensity with LXR-LBD [2]: did not affect the fluorescent intensity | concentration at which FXR dependent transcription was repressed [3]: not less than 1 μM | effect on transcription activity dependent on LXR [4]: did not influence the transcription activity | amount of CYP7A mRNA (no CDCA = 100, 20 μM CDCA = 0) [5]: 58 | CYP7A protein (Western blot) [6]: Accumulation of CYP7A protein | mRNA level of I-BABP (Northern blot) [7]: marked decrease | excretion of bile acid into the medium [8]: promoted the excretion of bile acid | Cmax [9]: 2010 ng/mL | Tmax [9]: 6 h | percent decrease in serum total cholesterol relative to the drug non-administration group ([10]; 30 mg/kg/day p.o.): 28% | percent decrease in serum total cholesterol relative to the drug non-administration group ([10]; 100 mg/kg/day p.o.): 32% | increase in mRNA level of the CYP7A gene in the liver relative to the drug non-administration group ([11]; 30 mg/kg/day p.o.): 53% | increase in mRNA level of the CYP7A gene in the liver relative to the drug non-administration group ([11]; 100 mg/kg/day p.o.): 27% | decrease in mRNA level of the I-BABP gene in the ileum relative to the drug non-administration group ([12]; 30 mg/kg/day p.o.): 11% | decrease in mRNA level of the I-BABP gene in the ileum relative to the drug non-administration group ([12]; 100 mg/kg/day p.o.): 16%
